Test results from patent US20220204498A1, “PYRIDO-PYRIMIDINYL COMPOUNDS AND METHODS OF USE” (Genentech, Inc., priority 2019, published 2022).
Counter-ions that a name gives are not always drawn.

Target: T1, IRE1α (Homo sapiens, UniProt O75460, D688N)
T1 construct: containing the kinase and RNase domains (KR, AA G547-1L977, D688N); made in house; host or cells: Sf9 insect cells
Assay: IRE1α TR-FRET competition binding assay (IRE1α HTRF)
Settings: His-tagged IRE1α kinase dead construct (KR, D688N) 0.25 nM; Alexa fluor 647-labeled ATP competitive probe 2 nM; one hour at room temperature; read-out: IRE1α (alpha) HTRF (IC50)
Procedure: Example 59. IRE1α TR-FRET Competition Binding Assay
To determine the affinity of compound binding to the kinase domain of IRE1α, a time-resolved fluorescence resonance energy transfer (TR-FRET) competition assay was used.
A His-tagged IRE1α kinase dead construct containing the kinase and RNase domains (KR, AA G547-1L977, D688N) was expressed in Sf9 insect cells. The purified protein (final concentration 0.25 nM) was pre-incubated with anti-His Europium labeled antibody (Life Technologies PV5596, final concentration 2 nM) for one hour at 4° C. in TR-FRET Assay Buffer (50 mM HEPES, pH 7.5, 10 mM MgCl2, 0.083 mM Brij 35, 1 mM DTT, and 0.1% bovine gamma globulin) prior to addition to test compounds. An Alexa fluor 647-labeled probe based on an ATP competitive inhibitor was added to a final concentration of 2 nM. Reactions were carried out for one hour at room temperature in a final volume of 20 μL in 384 well white ProxiPlates (Perkin Elmer 6008289). Binding of the probe to the IRE1α protein was detected in an Envision instrument (PerkinElmer) equipped with a TRF laser option and a LANCE/Delfia Dual/Bias D400/D630 mirror (Ex 347 nm, 1st Em 665 nm, 2nd Em 615 nm).

T1 sequence (O75460 547-977 D688N): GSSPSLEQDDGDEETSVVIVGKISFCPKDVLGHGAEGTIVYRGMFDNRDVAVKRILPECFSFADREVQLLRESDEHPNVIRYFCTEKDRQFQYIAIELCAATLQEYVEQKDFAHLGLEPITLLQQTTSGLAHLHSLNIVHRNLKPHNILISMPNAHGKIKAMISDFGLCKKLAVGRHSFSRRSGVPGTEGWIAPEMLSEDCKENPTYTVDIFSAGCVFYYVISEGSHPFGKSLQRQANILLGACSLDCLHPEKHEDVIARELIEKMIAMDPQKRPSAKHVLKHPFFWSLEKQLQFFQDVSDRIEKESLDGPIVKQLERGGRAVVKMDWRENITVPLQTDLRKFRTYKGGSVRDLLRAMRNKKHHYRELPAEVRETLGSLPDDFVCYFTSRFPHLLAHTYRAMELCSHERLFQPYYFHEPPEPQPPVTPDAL

| IC50 | SMILES |
| --- | --- |
| 0.08 nM | CCc1cc(-c2ccc(NS(=O)(=O)CCC(F)(F)F)c(F)c2)nc2cnc(N[C@H]3CC[C@H](N(C)C)CC3)nc12 [Compound 114, N-(4-(2-(((1,4-trans)-4-(Dimethylamino)cyclohexyl)amino)-8-ethylpyrido[3,2-d]pyrimidin-6-yl)-2-fluorophenyl)-3,3,3-trifluoropropane-1-sulfonamide] |
| 0.26 nM | Cc1cc(-c2ccc(NS(=O)(=O)Cc3ccc(F)cc3F)c(F)c2)nc2cnc(N[C@@H]3CNC[C@@H](F)C3)nc12 [Compound 115, 1-(2,4-Difluorophenyl)-N-(2-fluoro-4-(2-(((3S,5S)-5-fluoropiperidin-3-yl)amino)-8-methylpyrido[3,2-d]pyrimidin-6-yl)phenyl)methanesulfonamide] |
| 0.13 nM | Cc1cc(-c2ccc(NS(=O)(=O)Cc3ccc(C#N)cc3)c(F)c2)nc2cnc(N[C@@H]3CNC[C@@H](F)C3)nc12 [Compound 116, 1-(4-Cyanophenyl)-N-(2-fluoro-4-(2-(((3S,5S)-5-fluoropiperidin-3-yl)amino)-8-methylpyrido[3,2-d]pyrimidin-6-yl)phenyl)methanesulfonamide formate] |
| 0.11 nM | CCC(F)(F)CS(=O)(=O)Nc1ccc(-c2cc(C)c3nc(N[C@H]4CC[C@H](N(C)C)CC4)ncc3n2)cc1F [Compound 117, N-(4-(2-(((1,4-trans)-4-(Dimethylamino)cyclohexyl)amino)-8-methylpyrido[3,2-d]pyrimidin-6-yl)-2-fluorophenyl)-2,2-difluorobutane-1-sulfonamide formate] |
| 22 nM | COc1cc(-c2ccc(NS(=O)(=O)CCC(F)(F)F)c(F)c2)nc2cnc(N[C@H]3CC[C@H](N(C)C)CC3)nc12 [Compound 118, N-(4-(2-(((1,4-trans)-4-(Dimethylamino)cyclohexyl)amino)-8-methoxypyrido[3,2-d]pyrimidin-6-yl)-2-fluorophenyl)-3,3,3-trifluoropropane-1-sulfonamide formate] |
| 0.39 nM | CCc1cc(-c2ccc(NS(=O)(=O)CCC(F)(F)F)c(F)c2)nc2cnc(N[C@@H]3CNC[C@@H](F)C3)nc12 [Compound 119, N-(4-(8-Ethyl-2-(((3S,5S)-5-fluoropiperidin-3-yl)amino)pyrido[3,2-d]pyrimidin-6-yl)-2-fluorophenyl)-3,3,3-trifluoropropane-1-sulfonamide formate] |
| 0.25 nM | Cc1cc(-c2ccc(NS(=O)(=O)CCC(F)(F)F)c(Cl)c2)nc2cnc(N[C@H]3CC[C@H](N(C)C)CC3)nc12 [Compound 120, N-(2-Chloro-4-(2-(((1,4-trans)-4-(dimethylamino)cyclohexyl)amino)-8-methylpyrido[3,2-d]pyrimidin-6-yl)phenyl)-3,3,3-trifluoropropane-1-sulfonamide] |
| 0.27 nM | Cc1cc(-c2ccc(NS(=O)(=O)Cc3ccc(F)cc3)c(F)c2)nc2cnc(N[C@@H]3CNC[C@@H](F)C3)nc12 [Compound 121, N-(2-Fluoro-4-(2-(((3S,5S)-5-fluoropiperidin-3-yl)amino)-8-methylpyrido[3,2-d]pyrimidin-6-yl)phenyl)-1-(4-fluorophenyl)methanesulfonamide formate] |
| 0.2 nM | CCc1cc(-c2ccc(NS(=O)(=O)Cc3ccccc3)c(F)c2)nc2cnc(N[C@@H]3CNC[C@@H](F)C3)nc12 [Compound 122, N-(4-(8-Ethyl-2-(((3S,5S)-5-fluoropiperidin-3-yl)amino)pyrido[3,2-d]pyrimidin-6-yl)-2-fluorophenyl)-1-phenylmethanesulfonamide formate] |
| 0.18 nM | CCc1cc(-c2ccc(NS(=O)(=O)c3ccccc3Cl)c(F)c2)nc2cnc(N[C@@H]3CNC[C@@H](F)C3)nc12 [Compound 123, 2-Chloro-N-(4-(8-ethyl-2-(((3S,5S)-5-fluoropiperidin-3-yl)amino)pyrido[3,2-d]pyrimidin-6-yl)-2-fluorophenyl)benzenesulfonamide formate] |
| 0.16 nM | CC(C)c1cc(-c2ccc(NS(=O)(=O)CCC(F)(F)F)c(F)c2)nc2cnc(N[C@H]3CC[C@H](N(C)C)CC3)nc12 [Compound 124, N-(4-(2-(((1,4-trans)-4-(Dimethylamino)cyclohexyl)amino)-8-isopropylpyrido[3,2-d]pyrimidin-6-yl)-2-fluorophenyl)-3,3,3-trifluoropropane-1-sulfonamide] |
| 0.44 nM | Cc1cc(-c2ccc(NS(=O)(=O)CCC(F)(F)F)nc2)nc2cnc(N[C@H]3CC[C@H](N(C)C)CC3)nc12 [Compound 125, N-(5-(2-(((1,4-trans)-4-(Dimethylamino)cyclohexyl)amino)-8-methylpyrido[3,2-d]pyrimidin-6-yl)pyridin-2-yl)-3,3,3-trifluoropropane-1-sulfonamide] |

Continued, molecule first:

| SMILES | IC50 |
| --- | --- |
| CC(Oc1nc2nc(N[C@@H]3CNC[C@@H](F)C3)ncc2cc1-c1ccc(NS(=O)(=O)Cc2ccccc2)c(F)c1F)C(F)F (single isomer, unassigned) [Compound 102] | 1.1 nM |
| CC(Oc1nc2nc(N[C@@H]3CNC[C@@H](F)C3)ncc2cc1-c1ccc(NS(=O)(=O)Cc2ccccc2)c(F)c1F)C(F)F (single isomer, unassigned) [Compound 103] | 1.1 nM |
| O=S(=O)(Cc1ccccc1)Nc1c(F)cc(-c2cc3cnc(N[C@@H]4CNC[C@@H](F)C4)nc3nc2OC2CCOC2)c(F)c1F (single isomer, unassigned) [Compound 104] | 0.66 nM |
| O=S(=O)(Cc1ccccc1)Nc1c(F)cc(-c2cc3cnc(N[C@@H]4CNC[C@@H](F)C4)nc3nc2OC2CCOC2)c(F)c1F (single isomer, unassigned) [Compound 105] | 0.39 nM |
| O=S(=O)(Cc1ccccc1)Nc1ccc(-c2ccc3nc(N[C@@H]4CNC[C@@H](F)C4)ncc3n2)cc1F [Compound 100, N-(2-Fluoro-4-(2-(((3S,5S)-5-fluoropiperidin-3-yl)amino)pyrido[3,2-d]pyrimidin-6-yl)phenyl)-1-phenylmethanesulfonamide] | 0.89 nM |
| O=S(=O)(Cc1ccccc1)Nc1ccc(-c2cc3cnc(N[C@@H]4CNC[C@@H](F)C4)nc3cn2)cc1F [Compound 101, N-(2-Fluoro-4-(2-(((3S,5S)-5-fluoropiperidin-3-yl)amino)pyrido[3,4-d]pyrimidin-6-yl)phenyl)-1-phenylmethanesulfonamide] | 3 nM |
| Cc1cc(-c2ccc(NS(=O)(=O)Cc3ccccc3)c(F)c2)nc2cnc(N[C@@H]3CNC[C@@H](F)C3)nc12 [Compound 106, N-(2-Fluoro-4-(2-(((3S,5S)-5-fluoropiperidin-3-yl)amino)-8-methylpyrido[3,2-d]pyrimidin-6-yl)phenyl)-1-phenylmethanesulfonamide] | 0.3 nM |
| Cc1cc(-c2ccc(NS(=O)(=O)CCC(F)(F)F)c(F)c2)nc2cnc(N[C@H]3CC[C@H](N(C)C)CC3)nc12 [Compound 107, N-(4-(2-(((1r,4r)-4-(Dimethylamino)cyclohexyl)amino)-8-methylpyrido[3,2-d]pyrimidin-6-yl)-2-fluorophenyl)-3,3,3-trifluoropropane-1-sulfonamide] | 0.2 nM |
| Cc1cc(-c2cc(F)c(NS(=O)(=O)Cc3ccccc3)c(F)c2)nc2cnc(N[C@@H]3CNC[C@@H](F)C3)nc12 [Compound 108, N-(2,6-Difluoro-4-(2-(((3S,5S)-5-fluoropiperidin-3-yl)amino)-8-methylpyrido[3,2-d]pyrimidin-6-yl)phenyl)-1-phenylmethanesulfonamide] | 0.2 nM |
| O=S(=O)(Cc1ccccc1)Nc1ccc(-c2cnc3nc(N[C@@H]4CNC[C@@H](F)C4)ncc3c2)cc1F [Compound 109, N-(2-Fluoro-4-(2-(((3S,5S)-5-fluoropiperidin-3-yl)amino)pyrido[2,3-d]pyrimidin-6-yl)phenyl)-1-phenylmethanesulfonamide] | 5.7 nM |
| Cc1cc(-c2ccc(NS(=O)(=O)CCC(F)(F)F)c(F)c2)nc2cnc(N[C@@H]3CNC[C@@H](F)C3)nc12 [Compound 110, 3,3,3-Trifluoro-N-(2-fluoro-4-(2-(((3S,5S)-5-fluoropiperidin-3-yl)amino)-8-methylpyrido[3,2-d]pyrimidin-6-yl)phenyl)propane-1-sulfonamide] | 1.1 nM |
| CCCS(=O)(=O)Nc1ccc(-c2cc(C)c3nc(N[C@@H]4CNC[C@@H](F)C4)ncc3n2)cc1F [Compound 111, N-(2-Fluoro-4-(2-(((3S,5S)-5-fluoropiperidin-3-yl)amino)-8-methylpyrido[3,2-d]pyrimidin-6-yl)phenyl)propane-1-sulfonamide] | 2.1 nM |
| CCCS(=O)(=O)Nc1ccc(-c2cc(C)c3nc(N[C@H]4CC[C@H](N(C)C)CC4)ncc3n2)cc1F [Compound 112, N-(4-(2-(((1,4-trans)-4-(Dimethylamino)cyclohexyl)amino)-8-methylpyrido[3,2-d]pyrimidin-6-yl)-2-fluorophenyl)propane-1-sulfonamide formate] | 0.32 nM |
| Cc1cc(-c2ccc(NS(=O)(=O)CCC(C)(F)F)c(F)c2)nc2cnc(N[C@H]3CC[C@H](N(C)C)CC3)nc12 [Compound 113, N-(4-(2-(((1,4-trans)-4-(Dimethylamino)cyclohexyl)amino)-8-methylpyrido[3,2-d]pyrimidin-6-yl)-2-fluorophenyl)-3,3-difluorobutane-1-sulfonamide formate] | 0.17 nM |
